Common to all, as to experiment: NCI-60 cell line screen, 48 h
Assay [1] concerns Malme-3M.
The test system of assay [2] is BT-549.
Assay [3] has as its system SF-539.
Assay [4] has as its system UACC-257.
Assay [5] concerns DU-145.
The subject of assay [6] is NCI/ADR-RES.
The subject of assay [7] is HCT-15.
The subject of assay [8] is OVCAR-3.
Assay [9] has as its system COLO 205.
In assay [10] the test system is UACC-62.
Assay [11] has as its system OVCAR-4.
The test system of assay [12] is MDA-MB-435.
The test system of assay [13] is K562.
The test system of assay [14] is SNB-19.
Assay [15] deals with PC-3.
Assay [16] deals with NCI-H522.
Assay [17] relates to TK-10.
In assay [18] the test system is SNB-75.
For assay [19], the system named is SK-MEL-5.
In assay [20] the test system is SK-OV-3.

The text below walks through data of ChEMBL document CHEMBL1201862, “PubChem BioAssay data set” (2004).

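In this assay, cells in 96-well plates receive the compound at five concentrations for 48 hours. Endpoints are linearly interpolated between the surrounding concentrations. At the GI50, growth is halved.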 Calls of active or inactive are those of the source. No stated cut-off is given here; in the data, active = GI50 up to about 1.1 µM and inactive = higher.

In the case of `CNc1ncnc(Sc2nc(N)nc3[nH]cnc23)c1[N+](=O)[O-]`, the GI50 is 1.46 µM (inactive) in assay [1]; 2.6 µM (inactive) in assay [2]; 5.09 µM (inactive) in assay [3]; 1.54 µM (inactive) in assay [4]; 0.356 µM (active) in assay [5]; 0.427 µM (active) in assay [6]. Also, the GI50 in assay [7] was 1.54 µM; in assay [8] it was 0.75 µM (active); in assay [9], 2.13 µM (inactive); in assay [10], 0.586 µM (active); in [11], 1.46 µM (inactive); in assay [12], 0.48 µM (active). In addition, the GI50 in [13] was 0.33 µM (active); in assay [14] it was 35.6 µM (inactive); in assay [15], 4.23 µM (inactive); in assay [16], 0.635 µM (active); in [17], 0.251 µM (active); in [18], 0.406 µM (active). Moreover, the GI50 in assay [19] is 2.9 µM (inactive); in [20] it was 0.547 µM (active).

Consider `CC(C)(C)OC(=O)NCC(=O)N1CCCN(C(=O)CNC(=O)OC(C)(C)C)CC1`, for which the GI50 in assay [1] was > 100 µM (inactive); in [2] it was > 100 µM (inactive); in assay [4], > 100 µM (inactive); in assay [5], > 100 µM (inactive); in [6], > 100 µM (inactive); in [7], above 100 µM. Further, the GI50 in assay [8], in assay [9], in assay [10], in assay [11], in [12] and in [13] was > 100 µM (inactive) each time. Moreover, the GI50 in assay [14], in [15], in assay [16], in assay [17], in assay [18] and in assay [19] was > 100 µM (inactive) throughout. For the same compound, the GI50 in [20] was > 100 µM (inactive).

With `COc1ccc(O)c(/C(C)=N/NC(=S)N(C)C)c1`, the GI50 is 71 µM (inactive) in [1]; 36 µM (inactive) in [2]; 64 µM (inactive) in assay [3]; 63.4 µM (inactive) in assay [4]; 44 µM (inactive) in [5]; 18 µM (inactive) in [6]. Also, the GI50 in assay [7] is 5.12 µM; in [8] it was 37.3 µM (inactive); in assay [9], 21.3 µM (inactive); in assay [10], 26.1 µM (inactive); in [11], 2.63 µM (inactive); in assay [12] it was 57.7 µM (inactive). The GI50 in assay [13] was 60.1 µM (inactive); in assay [14], 40.5 µM (inactive); in [15], > 36.4 µM (inactive); in assay [16], 1.33 µM (inactive); in assay [18], 75.5 µM (inactive); in [19] it was 9.18 µM (inactive). For the same compound, the GI50 in assay [20] was 42.3 µM (inactive).

Turning to `[N-]=[N+]=Nc1ccccc1-c1ccccc1[N+](=O)[O-]`, the GI50 in assay [1] is 26.4 µM (inactive); in assay [2] it was 32.3 µM (inactive); in [4], 25.4 µM (inactive); in assay [5], 88.5 µM (inactive); in [6] it was 29.9 µM (inactive); in assay [7], 42.6 µM. Further, the GI50 is 39.4 µM (inactive) in assay [8]; 74.3 µM (inactive) in [10]; 72.9 µM (inactive) in assay [11]; 32.3 µM (inactive) in [12]; 31.3 µM (inactive) in [13]; > 100 µM (inactive) in assay [14]. The GI50 was 37.8 µM (inactive) in assay [15]; 14.9 µM (inactive) in [16]; 39.4 µM (inactive) in assay [17]; 50 µM (inactive) in assay [18]; > 100 µM (inactive) in [20].

For the compound `C/N=c1\sc2c(n1C)C(=O)c1ccccc1C2=O`, the GI50 in assay [1] was 0.331 µM (active); in assay [2], 1.76 µM (inactive); in [3], 2.01 µM (inactive); in assay [4], 1.53 µM (inactive); in assay [5] it was 1.66 µM (inactive); in [6] it was 3.95 µM (inactive). Further, the GI50 is 2.03 µM in assay [7]; 3.44 µM (inactive) in assay [8]; 5.3 µM (inactive) in assay [9]; 2.11 µM (inactive) in [10]; 5.43 µM (inactive) in assay [11]; 0.192 µM (active) in [12]. Further, the GI50 in assay [13] is 3.37 µM (inactive); in assay [14], 3.4 µM (inactive); in assay [15], 3.96 µM (inactive); in assay [16] it was 9.31 µM (inactive); in assay [17] it was 14.6 µM (inactive); in [18], 2.06 µM (inactive). Also, the GI50 in [19] is 1.27 µM (inactive); in [20], 31.2 µM (inactive).

In the case of `Nn1c(-c2ccccc2)nn(C(=O)c2ccccc2)c1=O`, the GI50 in assay [1], in assay [2], in assay [3], in assay [4], in [5] and in assay [6] was > 100 µM (inactive) in each case. Moreover, the GI50 is above 100 µM in [7]; > 100 µM (inactive) in assay [8]; > 100 µM (inactive) in assay [9]; > 100 µM (inactive) in [11]; > 100 µM (inactive) in assay [12]; > 100 µM (inactive) in assay [13]. Besides, the GI50 in [14], in assay [15], in assay [16], in assay [17], in assay [18] and in assay [19] was > 100 µM (inactive) in each case.

For `Nc1n[n+]([O-])c2ccc(Cl)cc2[n+]1[O-]`, the GI50 was 18.3 µM (inactive) in assay [1]; 13.2 µM (inactive) in [2]; 23 µM (inactive) in assay [3]; 17.9 µM (inactive) in assay [4]; 46.1 µM (inactive) in [5]; 36.3 µM (inactive) in assay [6]. The GI50 in assay [7] is 16.1 µM; in assay [9], 12.8 µM (inactive); in assay [10], > 10 µM (inactive); in [12], 21.4 µM (inactive); in assay [13], 10.3 µM (inactive); in assay [14] it was 34.5 µM (inactive). Further, the GI50 in assay [15] was 22.3 µM (inactive); in [16], 15.3 µM (inactive); in [17], 37.2 µM (inactive); in [18], 4.66 µM (inactive); in [19] it was 4.07 µM (inactive); in [20] it was 16.7 µM (inactive).

In the case of `COc1cc2oc(=O)ccc2cc1CC=C(C)C` [SUBEROSIN], the GI50 in assay [1] was 37.4 µM (inactive); in [2], 24.4 µM (inactive); in [3], 37.7 µM (inactive); in assay [4] it was 54.3 µM (inactive); in [5], 36.8 µM (inactive); in assay [6], 22.9 µM (inactive). Also, the GI50 is 59.7 µM (inactive) in assay [8]; 43.4 µM (inactive) in assay [9]; 23.4 µM (inactive) in [11]; 43.3 µM (inactive) in [12]; 51.4 µM (inactive) in [13]; 50.6 µM (inactive) in assay [14]. For the same compound, the GI50 in assay [15] is 83 µM (inactive); in assay [16], 42.3 µM (inactive); in [17], 19.9 µM (inactive); in assay [18], 41.1 µM (inactive); in assay [19], 37.3 µM (inactive).
